Several values for one entry are separate records, joined by “and”; a condition that tells them apart may be missing. Equal values may be shown once.
How the values were obtained:
[1] = tested on: P. salmonis; assay: Minimum inhibitory concentration of florfenicol on P. salmonis in infected SHK-1 cells; type: cell-based
Procedure: FIGS. 1 and 2. Cytotoxicity of andrographolide sodium bisulfite (PubChem CID: 133555830, “AP1”) and andrographolide sulphonate (PubChem CID: 72191954, “AP2”) in combination with florfenicol in SHK-1 cells treated and infected with P. salmonis. Cells were treated with AP1 (FIG. 1) and AP2 (FIG. 2) at 4.6 and 9 ng/mL and florfenicol in the range of 0,125; 0,250; 0.5 and […]. LDH analysis was done day 12 post-infection. Cells+Ps, cells infected without treatment; Vehicle+Ps, cells infected and treated with ethanol. “Flo sin AP” means florfenicol without an andrographolide; “Flo+AP” means florfenicol with an andrographolide. The percentage of cytotoxicity was calculated with respect to the control of total lysis of cells and the negative control (cells without treatment and infection) with the control florfenicol without AP. […] ANOVA y Fisher.
The effect of andrographolide on the antibiotic action of florfenicol, was corroborated by LDH in the supernatant in cells with different treatments showing the synergistic effect of andrographolide (AP) in the range of 0.125; 0.25 and 0.5 μg/mL of the antibiotic.

[2] = Florfenicol residue in muscle of coho salmon after treatment (Table 1); type: in vivo; parameters: florfenicol (residue): unit not given here; details: for florfenicol (residue): florfenicol 20 mg/kg
Procedure: Florfenicol (“FF”) was administered at a dose of 20 mg/kg at 15 days and at 30 days before harvesting. Andrographolide and seaweed powder were mixed with conventional fish feed at a dose of 1.056 kg seaweed powder and 0.044 kg andrographolide (“NATCONTROL”) per ton of feed. The NORMAL group corresponds to fish fed antibiotic without andrographolide.
So the farmer can treat with antibiotic closer to harvest, and harvested fish have far less antibiotic residue in their meat. […] This enables one to use a smaller dose of antibiotic to achieve the same effect. The residues of florfenicol at various days post-treatment indicate a more-rapid metabolization of florfenicol in fish muscle receiving andrographolide (<24 or not detected).

[3] = tested on: coho salmon; assay: Quality of the fish at harvest time; type: in vivo
Description: (§1) Odd-numbered cages received feed medicated with both florfenicol and with andrographolide (0.044 kg andrographolide per ton of feed) for 15 days. Even-numbered cages received feed medicated with only florfenicol. X Axis=day; Y axis (left)=accumulated mortality; Y axis (right)=periodic mortality. For each period, the left bar is florfenicol alone, the right bar is florfenicol and andrographolide. For cumulative mortality, the upper line (at date #5) is florfenicol alone, the lower line is florfenicol and andrographolide.
Table 3 compares the quality of the fish at harvest time. Premium Quality (“PRM”) fish have an absence of skin lesions and adequate body weight. A total of 332,315 fish were treated with florfenicol+andrographolide (“Impares Nat Control”) and 301,334 fish were treated with florfenicol alone (“Pares Normal”).

[4] = tested on: coho salmon; assay: Mortality and cause of death in coho salmon; type: in vivo
Description: FIG. 4 measures accumulated mortality over 14 days for coho salmon treated with florfenicol alone and combined with andrographolide.
as §1
In addition, it changes the causes of mortality. Table 2 compares the cause of death for the two groups.

[5] = Plasma concentration of florfenicol over time; type: in vivo, coho salmon
Description: FIG. 3. Plasma concentration of florfenicol over time: distribution of levels of plasma florfenicol. Y axis=Florfenicol plasma concentration (g/L). X axis=time (t=0, 5 days and 12 days). For each of the three days reported, the left bar is for fish treated with florfenicol alone, the right bar is for fish treated with florfenicol and also fed andrographolide.
as §1

[6] = florfenicol combined with the andrographolide (AP1 or AP2)
[7] = absence of skin lesions and adequate body weight
[8] = andrographolide co-fed with florfenicol, coho salmon

## C=C1CCC2[C@](C)(CO)[C@H](O)CC[C@@]2(C)[C@@H]1CC(C1C(=O)OC[C@H]1O)S(=O)(=O)[O-].[Na+] (stereo partly shown) [AP1, andrographolide sodium bisulfite]
[1]; [6]
  minimum inhibitory concentration of florfenicol: 0.25 µg/mL

## andrographolide sulphonate [AP2]
[1]; [6]
  minimum inhibitory concentration of florfenicol: 0.25 µg/mL

## CS(=O)(=O)c1ccc([C@@H](O)[C@@H](CF)NC(=O)C(Cl)Cl)cc1 [florfenicol]
[2]; Cage No. 101, andrographolide diet, Test Report No. 44.217-22
  florfenicol (residue): <24
[2]; Cage No. 102, normal diet (no andrographolide), Test Report No. 44.218-22
  florfenicol (residue): 270 and 363 and 502
[2]; Cage No. 103, andrographolide diet, Test Report No. 44.215-22
  florfenicol (residue): <24
[2]; fish receiving andrographolide, various days post-treatment
  residues of florfenicol in fish muscle: < 24
[3]
  FA fish, %: 4.65%
  FA fish, No: 14012 No
  GA1 fish, %: 17.87%
  GA1 fish, No: 53835 No
  GA2 fish, %: 1.426%
  GA2 fish, No: 4297 No
  percentage of Premium Quality fish: 76.1%
[3]; [7]
  PRM (Premium Quality) fish, %: 76.06%
  PRM (Premium Quality) fish, No: 229190 No
[1]; without andrographolide
  minimum inhibitory concentration of florfenicol: 0.5 µg/mL
[4]; Example 3
  Cause of death: Mechanical damage: 41.6 % of Total Deaths
  Cause of death: No apparent cause: 9.3 % of Total Deaths
  Cause of death: Runt (very small) fish: 0 % of Total Deaths
  Cause of death: SRS (skin lesions): 25.0 % of Total Deaths
  Time of death: In holding pen before harvesting: 10.9 % of Total Deaths

## C=C1CC[C@@H]2[C@](C)(CO)[C@H](O)CC[C@@]2(C)[C@@H]1C/C=C1/C(=O)OC[C@H]1O [andrographolide]
[2]; [8]
  in vivo metabolism and clearance of florfenicol: hastens the in vivo metabolism and clearance of florfenicol
[5]; [8]
  antibiotic (florfenicol) concentration in plasma: increases antibiotic concentration in plasma
[5]; fish treated with florfenicol and fed andrographolide vs florfenicol alone, 5 and 12 days
  average plasma florfenicol levels: higher average plasma florfenicol levels
[4]; andrographolide with florfenicol vs florfenicol alone
  mortality: decreases mortality
